We go through six compounds from paper PMC11897524 (Frontiers in Pharmacology, 2025).

In experiment [1] the target is T1, STAT3 (Homo sapiens, UniProt P40763). Put plainly: Microscale thermophoresis (MST) assay. Type of experiment: binding. Further details: purchased Abcam. As to conditions: MST. The method, then: The MST experiments were performed using the Monolith NT.115 instrument. BRD4 and STAT3 proteins were labeled with the Lys labeling kit at the final concentration of 100 nM. The compounds, previously suspended in 100% DMSO, were diluted in a buffer containing 20 mM Tris·HCl (pH 7.5), 100 mM NaCl, and 3 mM DTT, achieving a final DMSO concentration of 5%. The compounds were gradient-diluted in 1:1 dilution and starting from 100 μM. The samples were loaded into MST-standard glass capillaries. All the measurements were performed in triplicate using automatically assigned 50% MST power and 20% LED power. Data analysis was performed using GraphPad Prism 7.0 software.
For orientation: In MST a laser heats a spot of the sample, and binding alters the fluorescence response.

Experiment [2] addresses T1, STAT3. Put plainly: STAT3 binding inhibition assay. Further details: purchased Abcam.
Experiment [3] concerns the target T2, BRD4 (Homo sapiens, UniProt O60885). Briefly: Microscale thermophoresis (MST) assay. Type of experiment: binding. Further details: purchased Abcam. As to conditions: MST.
For experiment [4], the target named is T2, BRD4. Put plainly: AlphaScreen BRD4 binding inhibition assay. More on the design: purchased Abcam.
Procedure: The inhibitory effect was measured through the previously described the amplified luminescent proximity homogeneous assay (AlphaScreen) ([Feng et al., 2018]). First, the compounds were diluted twofold to different concentrations (64, 32, 16, 8, 4, 2, 1, 0.5, 0.25, 0.125, 0.0625 nM) and each was incubated with BRD4 protein at a concentration of 12.5 nM for 15 min at room temperature. Biotin-labeled peptide (SGRG-K(Ac)-GG-K(Ac)-GLG-K(Ac)-GGA-K (Ac)-RHRKVGG-K-biotin) was added for 10 min, followed by streptavidin donor beads and AlphaScreen nickel chelate acceptor and incubation for 1h. All components were incubated in a total volume of 20 μL assay buffer containing 20 mM HEPES, pH 7.4, 0.1% bovine serum albumin (BSA, w/v), 0.01% Triton X-100, and 1 mM DTT. Finally, counts were measured by EnVision (Perkin Elmer, Hopkinton, MA) and analyzed by Graphpad Prism 7.0 software.
Experiment [5] relates to BRD4. Further details: method as in Boi et al., 2015. As to conditions: BRD4 inhibitor; ref Boi et al., 2015; read-out: IC50 value as reported; cited from earlier work.
The test system of a further experiment is CAKI-2 cells. Briefly: MTT cytotoxicity assay. As to conditions: Homo sapiens, CAKI-2, cell growth, 48 h treatment, read-out: IC50 (μM) ± SD CAKI-2. Type of experiment: cell-based, human. The method, then: Human normal renal cortical proximal tubular epithelial cell line HK-2 and human renal carcinoma cell lines CAKI-2, SLR-23, 769-P, A704 and RCC4 were previously purchased from the American Type Culture Collection (ATCC, Manassas, VA, USA) or the European Collection of Cell Cultures (ECACC, Salisbury, United Kingdom). HK2, A704, and RCC4 cells were maintained in high glucose DMEM supplemented with 10% FBS and 1% penicillin/streptomycin. SLR-23 and […] cells were cultured in RPMI-1640 medium with 10% FBS and 1% penicillin/streptomycin. CAKI-2 cells were maintained in McCoy’s 5A medium supplemented with 10% FBS and 1% penicillin/streptomycin. All the cell lines were cultured at 37°C in a humidified atmosphere of 5% CO2 and 95% air.
The effect of hit compounds on cytotoxicity was determined as previously reported ([Ding et al., 2020]). In brief, cells treated with the tested compounds were added with MTT reagent to form formazan crystals, and then the optical density (OD) values at 570 nm were determined after the crystals were dissolved in DMSO. […] Next, the values of IC50 of the selected compounds against more RCC cell lines were determined. The 5 × 10^3 cells in 100 μL culture medium were injected into each well of a 96-well plate and cultured overnight. Add different concentrations of compounds and incubate for 48 h. Then 100 μL of MTT (0.5 mg/mL) solution was added to the 96-well plate and maintained at 37°C for 4 h. Finally, 200 μL of DMSO was added and shaken for 10 min. The OD values at 570 nm were determined by a Synergy 4 microplate reader.

As usually defined, the Kd is the constant that tells how readily two partners part at equilibrium. A lower Kd goes with a tighter complex. The term IC50 denotes the concentration that inhibits the measured activity by half.

T1 sequence (P40763 whole entry): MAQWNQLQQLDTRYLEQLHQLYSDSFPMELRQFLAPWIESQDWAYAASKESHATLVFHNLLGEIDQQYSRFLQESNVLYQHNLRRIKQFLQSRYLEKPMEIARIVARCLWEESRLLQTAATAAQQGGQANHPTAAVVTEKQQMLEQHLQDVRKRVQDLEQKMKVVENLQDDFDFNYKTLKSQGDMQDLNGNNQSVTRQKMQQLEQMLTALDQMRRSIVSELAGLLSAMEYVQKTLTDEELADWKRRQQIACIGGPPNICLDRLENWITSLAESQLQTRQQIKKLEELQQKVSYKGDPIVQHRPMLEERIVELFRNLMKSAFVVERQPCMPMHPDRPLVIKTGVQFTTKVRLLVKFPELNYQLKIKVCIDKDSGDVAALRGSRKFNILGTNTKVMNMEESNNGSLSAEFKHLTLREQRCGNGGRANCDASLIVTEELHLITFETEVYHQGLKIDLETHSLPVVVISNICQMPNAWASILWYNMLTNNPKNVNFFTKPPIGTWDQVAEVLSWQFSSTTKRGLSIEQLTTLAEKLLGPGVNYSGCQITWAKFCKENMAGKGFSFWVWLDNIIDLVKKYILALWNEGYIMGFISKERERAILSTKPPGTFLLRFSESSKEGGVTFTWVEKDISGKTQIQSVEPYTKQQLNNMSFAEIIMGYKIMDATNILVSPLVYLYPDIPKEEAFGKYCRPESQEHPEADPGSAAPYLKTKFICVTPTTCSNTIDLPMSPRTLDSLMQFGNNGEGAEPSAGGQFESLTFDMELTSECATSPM

As to `CCS(=O)(=O)Cc1cnc(Oc2c(F)cc(F)cc2OCc2nc(COc3ccc(/C=C/c4cc(OC)cc(OC)c4)cc3)c[nH]2)c(-c2cc(C)c3c(=O)[nH]ccn23)c1` [BST-1], the Kd amounted to 0.0164 ± 0.00095 µM on STAT3 [1] and 0.0123 ± 0.00116 µM on BRD4 [3]. In addition, the IC50 is 0.0208 ± 0.00194 µM on STAT3 [2] and 0.0157 ± 0.00131 µM on BRD4 [4].

Take `CCS(=O)(=O)Cc1cnc(Oc2c(F)cc(F)cc2O/C=C\CC(=O)COc2ccc(/C=C/c3cc(OC)cc(OC)c3)cc2)c(-c2cc(C)c3c(=O)[nH]ccn23)c1` [BST-2]: the values for the Kd at STAT3 [1] and at BRD4 [3] were 0.0287 ± 0.00371 µM and 0.00362 ± 0.00025 µM, respectively. In addition, the IC50 on STAT3 [2] stood at 0.0272 ± 0.00282 µM; on BRD4 [4], 0.00464 ± 0.00017 µM.

Regarding `CCS(=O)(=O)Cc1cnc(Oc2c(F)cc(F)cc2OC[C@@H]2CCC[C@H](COc3ccc(/C=C/c4cc(OC)cc(OC)c4)cc3)N2)c(-c2cc(C)c3c(=O)[nH]ccn23)c1` [BST-3], the Kd at STAT3 [1] turned out to be 0.00842 ± 0.00038 µM; at BRD4 [3], 0.00537 ± 0.00049 µM. Further, the IC50 was 0.0113 ± 0.00095 µM at STAT3 [2] and 0.00709 ± 0.00053 µM on BRD4 [4].

As for `CCS(=O)(=O)Cc1cnc(Oc2c(F)cc(F)cc2OCC2CCC(COc3ccc(C=Cc4cc(OC)cc(OC)c4)cc3)N2)c(-c2cc(C)c3c(=O)[nH]ccn23)c1` (stereo not shown) [BST-5], the values for the Kd at STAT3 [1] and on BRD4 [3] were 0.0137 ± 0.00098 µM and 0.00972 ± 0.00084 µM, respectively. The IC50 on STAT3 [2] stood at 0.0178 ± 0.00124 µM; on BRD4 [4] it was 0.0101 ± 0.00115 µM.

With `Cc1sc2c(c1C)C(c1ccc(Cl)cc1)=N[C@@H](CC(=O)Nc1ccc(O)cc1)c1nnc(C)n1-2` [OTX-015], the IC50 in the experiment on BRD4 [5] is roughly 0.092 µM.

In the case of `COc1cc(OC)c2c(=O)[nH]c(-c3cc(C)c(OCCO)c(C)c3)nc2c1` [RVX-208, reference compound], the “STAT3 (IC50, nM)” value at STAT3 [2] was “no inhibition”. In the experiment with CAKI-2 cells, the IC50 was 3.71 ± 0.42 µM.
